Measured values reported in patent US7250295B2 (Board of Trustees of Michigan State University, priority 1999, dated 2007).

Assays:
mAB 6F5 [1] = type: binding, mouse; settings: read-out: 50% inhibitory concentration
[2] = tested on: antibody obtained from C430-BSA-immunized mice; test: CI-ELISA: antisera of C430-BSA-immunized mice on immobilized DONPEP.2 phage; type: binding
Procedure: The strips were washed and blocked as described for the CD-ELISA. Various concentrations of DON (0 to 10,000 ηg/ml in 1% methanol-PBS), 50 μl/well, was added to the wells, and then 50 μl of anti-DON mAB 6F5 (10 μg/ml in 10% milk-PBS) was added to each well. The wells were incubated at 37° C. for 1 hour. Then the wells were washed six times with PBS-T, and the amounts of bound anti-DON mAB 6F5 were determined by incubation with goat anti-mouse IgG-HRP conjugate (diluted 1:2,000 with 10% milk-PBS) at 37° C. for 1 hour. The amounts of bound enzyme were determined as described above.
Synthetic peptide C430 was conjugated to BSA with a m-maleimidobenzoyl-N-hydroxysulfosuccinimide ester (sulfo-MBS) cross-linker. The C430-BSA conjugate, at a molar ratio of peptide C430 to the carrier protein BSA of about 29:1, was used to inject 7-week-old BALB/c female mice intraperitoneally or 6-month-old New Zealand white rabbits subcutaneously. The initial injections used for the mice contained 100 to 200 μg of C430-BSA conjugate in 200 μl of saline-Freund's complete adjuvant (1:1). These injections were followed at 3-week intervals by booster injections consisting of 100 to 200 μg of conjugate in 200 μl of saline-Freund's incomplete adjuvant (1:1). […]

[3] = tested on: protein synthesis in vitro with rabbit reticulocyte lysate; type: biochemical
mAB 6F5 [4] = test: Binding of nivalenol to mAB 6F5; parameters: species or system mouse

Compound	IC50 (mAB 6F5 [1]) [nM]	inhibition of antisera binding to immobilized phage-displayed peptide ([2]; free competitor in solution)	effect on new protein synthesis [3]	cell death (mouse bone marrow cells; B6C3F1, mouse)	affinity for mAB 6F5 relative to DON (mAB 6F5 [4])	IC50 ([2]; antiserum after the fourth injection of C430-BSA, FIG. 6, read-out: concentration giving 50% inhibition of antiserum binding to immobilized phage-displayed peptide) [nM]	new protein synthesis with DON mixed with equimolar C430 [3]	effect on cell viability when combined with DON (mouse bone marrow cells)	effect on viability of bone marrow cells (mouse bone marrow cells)
CC1=C[C@H]2O[C@@H]3[C@H](O)C[C@](C)([C@@]2(CO)[C@H](O)C1=O)[C@]31CO1 [DON, 12,13-epoxy-3,7,15-trichothec-9-en-8-one, reference compound]	3400	not inhibited by free DON	significantly inhibited new protein synthesis	40-60%					
CC1=C[C@H]2O[C@@H]3[C@H](O)[C@@H](O)[C@](C)([C@@]2(CO)[C@H](O)C1=O)[C@]31CO1 [Nivalenol, nivalenol]					slightly less affinity than DON				
H-SWGPFPFGGGSC-OH [C430, NH2-SWGPFPFGGGSC-COOH]			had no such inhibitory effect			390	new protein synthesis was not inhibited	did not significantly increase or decrease the cell viability caused by DON	did not have any adverse effect on the viability
